The subject of the test is P. falciparum K1. Kind of test: Blood-stage antiplasmodial evaluation (SYBR Green I fluorescence, 72 h). In kind it is cell-based, Plasmodium falciparum. The conditions noted are these: for EC50: read-out: P. falciparum K1 EC50; for IC50: erythrocytic stage P. falciparum K1, read-out: IC50 (activity on Pf. K1). The protocol: A K1 culture-adapted P. falciparum strain resistant to chloroquine, pyrimethamine, and proguanil was used in an in vitro culture. It was maintained in a continuous culture, as described previously by Trager and Jensen. Cultures were maintained in fresh A+ human erythrocytes at 2.5% hematocrit in a complete medium (RPMI 1640 with 25 mM HEPES, 25 mM NaHCO3, and 10% of A+ human serum) at 37 °C under a reduced O2 atmosphere (gas mixture: 10% O2, 5% CO2, and 85% N2). Parasitemia was maintained daily between 1 and 3%. The P. falciparum drug susceptibility test was carried out by comparing quantities of DNA in treated and control cultures of parasite in human erythrocytes, according to a SYBR Green I fluorescence-based method using a 96-well fluorescence plate reader. Compounds, previously dissolved in DMSO (final concentration less than 0.5% v/v), were incubated in a total assay volume of 200 μL (RPMI, 2% hematocrit and 0.4% parasitemia) for 72 h in a humidified atmosphere (10% O2 and 5% CO2) at 37 °C, in 96-well flat bottom plates. Duplicate assays were performed for each sample. After incubation, plates were frozen at […] for 24 h. Then, the frozen plates were thawed for 1 h at 37 °C. A total of 15 μL of each sample was transferred to 96-well flat-bottom non-sterile black plates (Greiner Bio-One, Kremsmünster, Austria) already containing 15 μL of the SYBR Green I lysis buffer (2X SYBR Green I, 20 mM Tris base pH 7.5, 20 mM EDTA, 0.008% w/v saponin, 0.08% w/v Triton X-100). Negative control treated by solvents (DMSO or H2O) and positive controls (chloroquine) were added to each set of experiments. Plates were incubated for 15 min at 37 °C and then read on a TECAN Infinite F-200 spectrophotometer with excitation and emission wavelengths at 485 and 535 nm, respectively. The concentrations of compounds required to induce a 50% decrease in parasite growth (EC50 K1) were calculated from three independent experiments.

The mark [1] stands for this setting: Plasmodium falciparum, K1, 72 h, asexual blood stages, drug-resistant K1 strain, 72 h incubation, mean ± SD of three independent experiments.
The mark [2] stands for this setting: asexual blood stages, drug-resistant K1 strain, 72 h incubation, mean ± SD of three independent experiments.
Setting [3] is: Plasmodium falciparum, K1, 72 h.

Where two headings read alike, the source gives them in different places. Bounds are passed on as bounds.

A word on the EC50: it is the midpoint of the concentration-response curve. On to `Cc1ccc(-c2cc3nc(NC(C)(C)C)nc(Nc4ccccc4)c3s2)cc1` [Compound 10h, N^2-(tert-butyl)-N^4-phenyl-6-(p-tolyl)thieno[3,2-d]pyrimidine-2,4-diamine], for which the EC50 under setting [1] came to 2 ± 0.4 µM. Further, under setting [2], the “P. falciparum K1 EC50” value was “some activity was maintained”.
`Cc1ccc(-c2cc3nc(NC(C)(C)C)nc(-c4ccccc4)c3s2)cc1` [Compound 11c, N-(tert-butyl)-4-phenyl-6-(p-tolyl)thieno[3,2-d]pyrimidin-2-amine]: the EC50 under setting [1] was more than 25 µM.
For the molecule `Cc1ccc(-c2cc3nc(NC(C)(C)C)nc(-c4ccc(C)cc4)c3s2)cc1` [Compound 11a, N-(tert-butyl)-4,6-di-p-tolylthieno[3,2-d]pyrimidin-2-amine], under setting [1], the EC50 is more than 31 µM.
Turning to `Cc1ccc(-c2cc3nc(NC(C)(C)C)nc(Oc4ccccc4)c3s2)cc1` [Compound 8a, N-(tert-butyl)-4-phenoxy-6-(p-tolyl)thieno[3,2-d]pyrimidin-2-amine], the concentration for a half-maximal effect (EC50) under setting [1] is more than 10 µM.
As for `Cc1ccc(-c2cc3nc(NC(C)(C)C)nc(Sc4ccccc4)c3s2)cc1` [Compound 9a, N-(tert-butyl)-6-(p-tolyl)-4-(phenylthio)thieno[3,2-d]pyrimidin-2-amine], the EC50 under setting [1] is 13.8 ± 1.7 µM.
A word on the IC50: it is the concentration that inhibits the measured activity by half. On to “N-(tert-butyl)-4-(1-methylhydrazinyl)-6-(p-tolyl)-3,4-dihydrothieno[3,2-d]pyrimidin-2-amine [Compound 10b]”, for which the 50% inhibitory concentration (IC50) is approximately 2 µM. Moreover, the EC50 under setting [2] was 2.2 ± 0.3 µM.
Consider `Cc1ccc(-c2cc3nc(NC(C)(C)C)nc(C#CCCO)c3s2)cc1` [Compound 12c, 4-[2-tert-butylamino-6-(4-methylphenyl)thieno[3,2-d]pyrimidin-4-yl]but-3-yn-1-ol], for which, under setting [1], the EC50 is 14.2 ± 2.8 µM.
On the same count and under the same terms, the value for `CCOc1nc(NC(C)(C)C)nc2cc(-c3ccc(C)cc3)sc12` [Compound 7b, N-(tert-butyl)-4-ethoxy-6-(p-tolyl)thieno[3,2-d]pyrimidin-2-amine] was 5.1 ± 1.3 µM.
For the molecule `Cc1ccc(-c2cc3nc(NC(C)(C)C)nc(N[C@@H](C)C(=O)[O-])c3s2)cc1.O.O.O.[Na+]` [Compound 10j, Sodium (S)-2-((2-(Tert-butylamino)-6-(p-tolyl)thieno[3,2-d]pyrimidin-4-yl)amino)-propanoate trihydrate], the EC50 under setting [3] is more than 12.5 µM. For the same molecule, the “P. falciparum K1 EC50” value under setting [2] is on record as “loss of activity”.
For the molecule `Cc1ccc(-c2cc3nc(NC(C)(C)C)nc(-c4ccsc4)c3s2)cc1` [Compound 11d, N-(tert-butyl)-4-(thiophen-3-yl)-6-(p-tolyl)thieno[3,2-d]pyrimidin-2-amine], under setting [1], the EC50 is more than 25 µM.
The same measure, in the same setting: the value for `Cc1ccc(-c2cc3nc(NC(C)(C)C)nc(C#CC4CC4)c3s2)cc1` [Compound 12b, N-tert-butyl-4-(cyclopropylethynyl)-6-(4-methylphenyl)thieno[3,2-d]pyrimidin-2-amine] was 15.7 ± 2.4 µM; that for `Cc1ccc(-c2cc3nc(NC(C)(C)C)nc(-c4cccnc4)c3s2)cc1` [Compound 11f, N-(tert-butyl)-4-(pyridin-3-yl)-6-(p-tolyl)thieno[3,2-d]pyrimidin-2-amine] was more than 10 µM; that for `Cc1ccc(Sc2nc(NC(C)(C)C)nc3cc(-c4ccc(C)cc4)sc23)cc1` [Compound 9b, N-(tert-butyl)-6-(p-tolyl)-4-(p-tolylthio)thieno[3,2-d]pyrimidin-2-amine] was 16.4 ± 1.9 µM.
Regarding `Cc1ccc(-c2cc3nc(NC(C)(C)C)nc(C#Cc4ccccc4)c3s2)cc1` [Compound 12a, N-tert-butyl-6-(4-methylphenyl)-4-(phenylethynyl)thieno[3,2-d]pyrimidin-2-amine], the EC50 under setting [1] worked out at 20.1 ± 4.1 µM.
As for `COc1nc(NC(C)(C)C)nc2cc(-c3ccc(C)cc3)sc12` [Compound 7a, N-(tert-butyl)-4-methoxy-6-(p-tolyl)thieno[3,2-d]pyrimidin-2-amine], the EC50 under setting [1] amounted to 7.6 ± 0.9 µM.
With `Cc1ccc(-c2cc3nc(NC(C)(C)C)ncc3s2)cc1` [Compound 13, N-(Tert-butyl)-6-(p-tolyl)thieno[3,2-d]pyrimidin-2-amine], the EC50 under setting [1] came out at 26.1 ± 2.2 µM. Further, the “P. falciparum K1 EC50” value under setting [2] was “inactive”.
Consider `Cc1ccc(-c2cc3nc(NC(C)(C)C)nc(-c4ccncc4)c3s2)cc1` [Compound 11e, N-(tert-butyl)-4-(pyridin-4-yl)-6-(p-tolyl)thieno[3,2-d]pyrimidin-2-amine], for which, under setting [1], the EC50 was found to be 28.1 ± 7 µM.
As for `Cc1ccc(-c2cc3nc(NC(C)(C)C)nc(NC(C)C)c3s2)cc1` [Compound 10e, N^2-(tert-butyl)-N^4-isopropyl-6-(p-tolyl)thieno[3,2-d]pyrimidine-2,4-diamine], under setting [1], the EC50 turned out to be 2.4 ± 1 µM. Under “Plasmodium falciparum”, the IC50 is approximately 2 µM.
With `CCN(CC)CCCC(C)Nc1ccnc2cc(Cl)ccc12` (stereo not shown) [Chloroquine, reference compound], under setting [3], the half-maximal effective concentration (EC50) stood at 0.8 ± 0.1 µM.
For the molecule `Cc1ccc(-c2cc3nc(NC(C)(C)C)nc(NN)c3s2)cc1` [Compound 10i, N-(tert-butyl)-4-hydrazino-6-(p-tolyl)thieno[3,2-d]pyrimidin-2-amine], the EC50 under setting [1] came to 2.2 ± 0.3 µM. In addition, the IC50 (Plasmodium falciparum) was approximately 2 µM.
Take `Cc1ccc(-c2cc3nc(NC(C)(C)C)nc(-c4cccc(C)c4)c3s2)cc1` [Compound 11b, N-(tert-butyl)-4-(m-tolyl)-6-(p-tolyl)thieno[3,2-d]pyrimidin-2-amine]: the half-maximal effective concentration (EC50) under setting [1] is more than 31 µM.
Consider `Cc1ccc(Oc2nc(NC(C)(C)C)nc3cc(-c4ccc(C)cc4)sc23)cc1` [Compound 8b, N-(tert-butyl)-6-(p-tolyl)-4-(p-tolyloxy)thieno[3,2-d]pyrimidin-2-amine], for which the EC50 under setting [1] is more than 10 µM.

For the origin of these results see paper PMC9323797, “4-Substituted Thieno[3,2-d]pyrimidines as Dual-Stage Antiplasmodial Derivatives” (Pharmaceuticals, 2022).
